Experimental data as given in the supplement of paper PMC5579334.

Legend:
HSC2 [1] = assay: relative IC50 (inflection point of fitted dose-response curve, CellTiter-Glo viability, 72 h; top asymptote may be below 50% inhibition); higher = less potent
Summary of the method: (§1)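 For this screen, 384-well plates were preprinted with each compound at five concentrations in 10-fold steps and seeded with MPNST cell lines or primary human Schwann cells at 750–1000 cells per well. Incubation lasted 72 h at 37 °C, 5% CO2, and CellTiter-Glo ATP luminescence, scaled between vehicle and positive-control wells and averaged over duplicates where available, served as viability. Logistic fits with four parameters were applied. Relative IC50 (censored at the top concentration) and drug sensitivity score derive from these fits, and percent inhibition is at the top concentration.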

YST-1 = assay: as above
Summary of the method: as §1

HS-Sch-2 = assay: as above
Summary of the method: as §1

STS26T [2] = assay: as above
Summary of the method: as §1

S1507-2 [3] = assay: as above
Summary of the method: as §1

S462 = assay: as above
Summary of the method: as §1

HS-PSS [4] = assay: as above
Summary of the method: as §1

ST8814 [5] = assay: as above
Summary of the method: as §1

HSC1 [6] = assay: as above
Summary of the method: as §1

HSC2 [7] = assay: relative IC50 (inflection point of fitted dose-response curve, CellTox-Green cytotoxicity, 72 h; top asymptote may be below 50%); higher = less potent
Summary of the method: (§2)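 MPNST cell lines and primary human Schwann cells were grown for 72 h at 37 °C in 384-well plates containing five 10-fold compound dilutions. CellTox-Green, added before seeding at a final 1:1000 dilution, gave fluorescence from DNA released by disrupted cells, and signals were scaled to vehicle and positive-control wells. Curves were fitted with a four-parameter logistic model. Drug sensitivity score and relative IC50 come from these fits, with IC50 censored at the top concentration.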

STS26T [8] = assay: as above
Summary of the method: as §2

S1507-2 [9] = assay: as above
Summary of the method: as §2

HS-PSS [10] = assay: as above
Summary of the method: as §2

ST8814 [11] = assay: as above
Summary of the method: as §2

HSC1 [12] = assay: as above
Summary of the method: as §2

Structure (SMILES)	relative IC50 (HSC2 [1])	relative IC50 (YST-1)	relative IC50 (HS-Sch-2)	relative IC50 (STS26T [2])	relative IC50 (S1507-2 [3])	relative IC50 (S462)	relative IC50 (HS-PSS [4])	relative IC50 (ST8814 [5])	relative IC50 (HSC1 [6])	relative IC50 (HSC2 [7])	relative IC50 (STS26T [8])	relative IC50 (S1507-2 [9])	relative IC50 (HS-PSS [10])	relative IC50 (ST8814 [11])	relative IC50 (HSC1 [12])
CCC1(c2ccc(N)cc2)CCC(=O)NC1=O (stereo not given) [Aminoglutethimide]	> 10000 nM	> 10000 nM	> 10000 nM	> 10000 nM	> 10000 nM	> 10000 nM	> 10000 nM	> 10000 nM	> 10000 nM	> 10000 nM	> 10000 nM	> 10000 nM	> 10000 nM	> 10000 nM	> 10000 nM
CC(C)(C#N)c1cc(Cn2cncn2)cc(C(C)(C)C#N)c1 [Anastrozole]	> 10000 nM	> 10000 nM	> 10000 nM	> 10000 nM	> 10000 nM	> 10000 nM	> 10000 nM	> 10000 nM	> 10000 nM	> 10000 nM	> 10000 nM	> 10000 nM	> 10000 nM	> 10000 nM	> 10000 nM
COc1c(C)cnc(Cn2cnc3c(Cl)nc(N)nc32)c1C [BIIB021]	297 nM	328 nM	95.1 nM	247 nM	268 nM	186 nM	424 nM	280 nM	395 nM	231 nM	316 nM	484 nM	396 nM	587 nM	217 nM
O=C(/C=C/c1cccc(S(=O)(=O)Nc2ccccc2)c1)NO [Belinostat]	704 nM	259 nM	610 nM	718 nM	364 nM	762 nM	924 nM	321 nM	459 nM	1700 nM	415 nM	1190 nM	1490 nM	800 nM	1770 nM
CC(C)C[C@H](NC(=O)[C@H](Cc1ccccc1)NC(=O)c1cnccn1)B(O)O [Bortezomib]	6.64 nM	10.1 nM	3.47 nM	11 nM	10.1 nM	5.87 nM	51.1 nM	6.3 nM	7.32 nM	21.4 nM	11.2 nM	8.94 nM	123 nM	9.88 nM	22.6 nM
COc1cc(Nc2c(C#N)cnc3cc(OCCCN4CCN(C)CC4)c(OC)cc23)c(Cl)cc1Cl [Bosutinib]	1140 nM	2590 nM	1600 nM	1270 nM	1410 nM	1490 nM	3430 nM	1460 nM	1700 nM	3250 nM	2950 nM	3200 nM	3310 nM	2410 nM	3330 nM
Cc1cc2c(F)c(Oc3ncnn4cc(OC[C@@H](C)O)c(C)c34)ccc2[nH]1 [Brivanib]	> 1000 nM	> 1000 nM	> 1000 nM	> 1000 nM	> 1000 nM	> 1000 nM	> 1000 nM	> 1000 nM	> 1000 nM	> 1000 nM	> 1000 nM	> 1000 nM	> 1000 nM	> 1000 nM	> 1000 nM
Nc1cc(C(F)(F)F)c(-c2cc(N3CCOCC3)nc(N3CCOCC3)n2)cn1 [Buparlisib]	2020 nM	844 nM	1610 nM	1530 nM	1370 nM	1790 nM	1750 nM	1690 nM	1990 nM	2210 nM	1610 nM	2960 nM	> 10000 nM	2660 nM	2710 nM
C#Cc1cccc(Nc2ncnc3cc(OC)c(OCCCCCCC(=O)NO)cc23)c1 [CUDC-101]	545 nM	159 nM	438 nM	1820 nM	909 nM	732 nM	699 nM	801 nM	470 nM	984 nM	2500 nM	1810 nM	1850 nM	1270 nM	1130 nM
C=CC(=O)Nc1cc2c(Nc3ccc(F)c(Cl)c3)ncnc2cc1OCCCN1CCOCC1 [Canertinib]	2030 nM	3180 nM	2530 nM	2220 nM	1560 nM	2780 nM	2440 nM	1870 nM	1610 nM	2000 nM	2700 nM	2410 nM	2420 nM	2970 nM	2160 nM
CC(C)C[C@H](NC(=O)[C@H](CCc1ccccc1)NC(=O)CN1CCOCC1)C(=O)N[C@@H](Cc1ccccc1)C(=O)N[C@@H](CC(C)C)C(=O)[C@@]1(C)CO1 [Carfilzomib]	9.67 nM	4.71 nM	2.75 nM	8.28 nM	17.2 nM	4.5 nM	11.7 nM	8.99 nM	11.5 nM	23 nM	8.79 nM	25.7 nM	25.1 nM	12 nM	24.6 nM
Nc1nc(Cl)nc2c1ncn2[C@@H]1O[C@H](CO)[C@@H](O)[C@@H]1F [Clofarabine]	207 nM	331 nM	161 nM	301 nM	817 nM	374 nM	387 nM	744 nM	289 nM	337 nM	585 nM	1940 nM	311 nM	814 nM	323 nM
CCN(CC)CCOc1ccc(/C(=C(/Cl)c2ccccc2)c2ccccc2)cc1 [Clomifene]	2440 nM	3930 nM	3360 nM	2520 nM	2470 nM	2450 nM	2290 nM	2540 nM	1140 nM	2030 nM	2840 nM	3540 nM	2990 nM	2560 nM	> 10000 nM
CC1(COc2ccc3c(c2)ncn3-c2ccc3cccc(N4CCC(N)CC4)c3n2)COC1 [Crenolanib]	2430 nM	3310 nM	1250 nM	2710 nM	2280 nM	3270 nM	3640 nM	1750 nM	2670 nM	3310 nM	3240 nM	1950 nM	3150 nM	1980 nM	2930 nM
O=C(/C=C/c1cccnc1)NCCCCC1CCN(C(=O)c2ccccc2)CC1 [Daporinad]	8.05 nM	2.8 nM	3.57 nM	36.9 nM	37.8 nM	4.41 nM	5.73 nM	7.62 nM	7.32 nM	> 1000 nM	36.1 nM	> 1000 nM	> 1000 nM	> 1000 nM	> 1000 nM
CCCCCCCCc1ccc(CCC(N)(CO)CO)cc1 [Fingolimod]	2340 nM	2940 nM	2480 nM	2620 nM	2030 nM	3070 nM	1890 nM	2770 nM	2150 nM	2220 nM	3340 nM	1600 nM	3160 nM	3430 nM	1950 nM
CCCc1cc(C)[nH]c(=O)c1CNC(=O)c1cc(-c2ccnc(N3CCN(C)CC3)c2)cc2c1cnn2C(C)C [GSK343]	1810 nM	4350 nM	3810 nM	3820 nM	2690 nM	3250 nM	2970 nM	3200 nM	1520 nM	> 10000 nM	2660 nM	2310 nM	3090 nM	3100 nM	> 10000 nM
CC(C)c1cc(-c2n[nH]c(=O)n2-c2ccc3c(ccn3C)c2)c(O)cc1O [Ganetespib]	17.2 nM	36.8 nM	23.2 nM	24.4 nM	42.4 nM	25 nM	42.7 nM	18.1 nM	14.9 nM	18.5 nM	33 nM	46.4 nM	37.5 nM	11.5 nM	17.8 nM
Nc1ccn([C@@H]2O[C@H](CO)[C@@H](O)C2(F)F)c(=O)n1 [Gemcitabine]	2 nM	8.34 nM	2.09 nM	1.59 nM	0.876 nM	0.481 nM	19.9 nM	4.13 nM	2.2 nM	5.47 nM	1.22 nM	2.65 nM	50.4 nM	3.86 nM	8.57 nM
CC(=O)[C@]1(O)Cc2c(O)c3c(c(O)c2[C@@H](O[C@H]2C[C@H](N)[C@H](O)[C@H](C)O2)C1)C(=O)c1ccccc1C3=O [Idarubicin]	22.6 nM	8.54 nM	39.7 nM	14.4 nM	25.6 nM	9.47 nM	103 nM	24.9 nM	19.7 nM	204 nM	10.8 nM	54.1 nM	162 nM	27 nM	107 nM
CCc1c2c(nc3ccc(OC(=O)N4CCC(N5CCCCC5)CC4)cc13)-c1cc3c(c(=O)n1C2)COC(=O)[C@]3(O)CC [Irinotecan]	822 nM	359 nM	1340 nM	1790 nM	1580 nM	1310 nM	2610 nM	1210 nM	406 nM	2240 nM	2360 nM	3670 nM	2130 nM	1940 nM	2660 nM
C/C(=C\c1csc(C)n1)[C@@H]1C[C@@H]2O[C@]2(C)CCC[C@H](C)[C@H](O)[C@@H](C)C(=O)C(C)(C)[C@@H](O)CC(=O)N1 [Ixabepilone]	248 nM	361 nM	313 nM	350 nM	332 nM	335 nM	392 nM	363 nM	115 nM	354 nM	316 nM	370 nM	> 1000 nM	341 nM	283 nM
O=C(Cc1ccc(-c2ccc(OCCN3CCOCC3)cc2)cn1)NCc1ccccc1 [KX2-391]	73 nM	49.1 nM	30.5 nM	29.4 nM	46.7 nM	34.3 nM	163 nM	36.4 nM	52.3 nM	139 nM	23.6 nM	30.2 nM	> 10000 nM	33.8 nM	112 nM
c1ccc([C@H]2CN3CCSC3=N2)cc1 [Levamisole]	> 10000 nM	> 10000 nM	> 10000 nM	> 10000 nM	> 10000 nM	> 10000 nM	> 10000 nM	> 10000 nM	> 10000 nM	> 10000 nM	> 10000 nM	> 10000 nM	> 10000 nM	> 10000 nM	> 10000 nM
O=NN(CCCl)C(=O)NC1CCCCC1 [Lomustine]	> 10000 nM	> 10000 nM	> 10000 nM	> 10000 nM	> 10000 nM	> 10000 nM	> 10000 nM	> 10000 nM	> 10000 nM	> 10000 nM	> 10000 nM	> 10000 nM	> 10000 nM	> 10000 nM	> 10000 nM
CO[C@H]1[C@@H](N(C)C(=O)c2ccccc2)C[C@@H]2O[C@@]1(C)n1c3ccccc3c3c4c(c5c6ccccc6n2c5c31)C(=O)NC4 [Midostaurin]	155 nM	163 nM	409 nM	436 nM	282 nM	580 nM	465 nM	443 nM	112 nM	243 nM	323 nM	395 nM	> 10000 nM	274 nM	901 nM
